Measured values reported in patent US5849735A, “Tricyclic benzazepine vasopressin antagonists” (American Cyanamid Company, priority 1995, dated 1998).

Experiments:
[1] = target: T1, vasopressin V2 receptor (rat kidney medullary) (Rattus norvegicus, UniProt Q00788); assay: Binding Assay to Rat Kidney Medullary V2 Receptors
T1 construct: Medullary tissues from rat kidneys are dissected out; from tissue; host or cells: rat kidney medulla membranes
Protocol: Binding Assay to Rat Kidney Medullary V2 Receptors
Medullary tissues from rat kidneys are dissected out, cut into small pieces and soaked in a […] sodium chloride solution containing 1.0 mM EDTA with many changes of the liquid phase, until the solution is clear of blood. […] The tissue is homogenized in a 0.25M sucrose solution containing 1.0 mM EDTA and 0.1 mM PMSF using a Potter-Elvehjem homogenizer with a teflon pestle. The homogenate is filtered through several layers (4 layers) of cheese cloth. The filtrate is rehomogenized using a dounce homogenizer, with a tight fitting pestle. The final homogenate is centrifuged at 1500×g for 15 min. The nuclear pellet is discarded and the supernatant fluid recentrifuged at 40,000×g for 30 min. The resulting pellet formed contains a dark inner part with the exterior, slightly pink. The pink outer part is suspended in a small amount of 50.0 mM Tris.HCl buffer, pH 7.4. The protein content is determined by the Lowry's method (Lowry et al., J. Biol. Chem., 1953). The membrane suspension is stored at -70° C., in 50.0 mM Tris.HCl, containing 0.2% inactivated BSA and 0.1 mM PMSF in aliquots of 1.0 ml containing 10.0 mg protein per ml of suspension until sue in subsequent binding experiments.
For binding experiments, the following is added in ml volume to wells of a 96 well format of a microtiter plate: 100.0 ml of 100.0 mM Tris.HCl buffer containing 0.2% heat inactivated BSA, 10.0 mM MgCL2 and a mixture of protease inhibitors: leupeptin, 1.0 mg %; aprotinin, 1.0 mg % 1,10-phenanthroline, 2.0 mg %; trypsin inhibitor, and 0.1 mM PMSF, 20.0 ml of [^3 H] Arginine^8, vasopressin (S.A. 75.0 Ci/mmole) at 0.8 nM and the reaction initiated by the addition of 80.0 ml of tissue membranes (200.0 mg tissue protein). The plates are left undisturbed on the bench top for 120 minutes to reach equilibrium. Non-specific binding is assessed in the presence of 1.0 mM of unlabeled ligand, added in 20 ml volume. For test compounds, these are solubilized in 50% dimethylsulfoxide (DMSO) and added in 20.0 ml volume to a final incubation volume of […]. Upon completion of binding, the content of each well is filtered off, using a Brandel® cell Harvester (Gaithersburg, Md.). The radioactivity trapped on the filter disk by the ligand-receptor complex is assessed by liquid scintillation counting in a Parkard LS Counter, with an efficiency of 65% for tritium.

[2] = target: T2, vasopressin V1 receptor (rat liver plasma membranes) (Rattus norvegicus, UniProt P30560); assay: Binding Assay to Rat Hepatic V1 Receptors
T2 construct: Rat liver plasma membranes expressing the vasopressin V1 receptor subtypes; from tissue; host or cells: rat liver plasma membranes
T2 sequence (P30560 whole entry): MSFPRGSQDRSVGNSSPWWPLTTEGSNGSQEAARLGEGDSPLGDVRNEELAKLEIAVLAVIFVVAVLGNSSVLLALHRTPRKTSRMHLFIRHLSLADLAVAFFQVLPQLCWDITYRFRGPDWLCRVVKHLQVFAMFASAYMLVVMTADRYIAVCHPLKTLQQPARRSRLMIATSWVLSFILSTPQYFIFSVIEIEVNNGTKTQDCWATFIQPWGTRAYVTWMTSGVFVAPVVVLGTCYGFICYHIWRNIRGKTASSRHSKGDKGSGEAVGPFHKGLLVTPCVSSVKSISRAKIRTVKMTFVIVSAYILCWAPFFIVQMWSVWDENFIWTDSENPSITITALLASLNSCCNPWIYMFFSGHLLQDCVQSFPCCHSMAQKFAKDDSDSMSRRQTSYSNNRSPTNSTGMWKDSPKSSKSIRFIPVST
Protocol: Binding Assay to Rat Hepatic V1 Receptors
Rat liver plasma membranes expressing the vasopressin V1 receptor subtypes are isolated by sucrose density gradient according to the method described by Lesko et al., (1973). These membranes are quickly suspended in 50.0 mM Tris.HCl buffer, pH 7.4, containing 0.2% bovine serum albumin (BSA) and 0.1 mM phenylmethylsulfonylfluoride (PMSF) and kept frozen at -70° C. until used in subsequent binding experiments. For binding experiments, the following is added to the wells of a ninety-six well format microtiter plate: […] of […] buffer containing 10.0 mM MgCl2, 0.2% heat inactivated BSA and a mixture of protease inhibitors: leupeptin, 1.0 mg %; aprotinin, 1.0 mg %; 1,10-phenanthroline,2.0 mg %; trypsin inhibitor, 10.0 mg % and 0.1 mM PMSF, 20.0 ml of [phenylalanyl-3,4,5, -^3 H] vasopressin (S.A. 45.1 Ci/mmole) […], and the reaction initiated by the addition of 80 ml of tissue membranes containing 20 mg of tissue protein. The plates are kept undisturbed on the bench top at room temperature for 120 min. to reach equilibrium. Non-specific samples are assayed in the presence of 0.1 mM of the unlabeled […] phenylalanylvasopressin, added in 20.0 ml volume.
For test compounds, these are solubilized in 50% dimethylsulfoxide (DMSO) and added in 20.0 ml volume to a final incubation volume of […]. Upon completion of binding, the content of each well is filtered off, using a Brandel® cell Harvester (Gaithersburg, Md.). The radioactivity trapped on the filter disk by the ligand-receptor complex is assessed by liquid scintillation counting in a Packard LS Counter, with an efficiency of 65% for tritium.

[3] = target: T3, oxytocin receptor (rat uteri) (Rattus norvegicus, UniProt P70536); assay: Oxytocin Receptor Binding; design: species or system rat (Sprague-Dawley); conditions: for IC50: [3H]oxytocin displacement
T3 construct: The uteri are dissected out, cleaned of fat and connective tissues; from tissue; host or cells: uteri of diethylstilbestrol-treated female Sprague-Dawley rats
T3 sequence (P70536 1-388): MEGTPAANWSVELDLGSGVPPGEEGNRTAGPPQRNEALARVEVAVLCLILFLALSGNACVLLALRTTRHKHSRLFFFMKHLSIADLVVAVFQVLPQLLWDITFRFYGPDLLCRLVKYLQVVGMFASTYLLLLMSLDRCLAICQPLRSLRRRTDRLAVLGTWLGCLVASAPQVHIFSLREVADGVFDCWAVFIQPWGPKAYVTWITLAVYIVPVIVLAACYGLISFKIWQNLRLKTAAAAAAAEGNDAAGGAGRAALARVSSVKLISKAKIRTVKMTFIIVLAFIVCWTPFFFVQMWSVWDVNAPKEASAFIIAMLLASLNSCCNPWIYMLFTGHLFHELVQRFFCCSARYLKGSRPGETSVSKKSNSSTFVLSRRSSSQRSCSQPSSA
Protocol: Oxytocin Receptor Binding
Female Sprague-Dawley rats weighing approximately 200-250 g are injected intramuscularly (i.m.) with 0.3 mg/kg of body weight of diethylstilbestrol (DES). The rats are sacrificed 18 hours later under pentobarbital anesthesia. The uteri are dissected out, cleaned of fat and connective tissues and rinsed in 50 ml of normal saline. The tissue pooled from six rats is homogenized in 50 ml of […] Tris. HCl, containing 0.5 mM dithiothreitol and 1.0 mM EDTA, adjusted to pH 7.4, using a polytron at setting 6 with three passes of 10 sec each. The homogenate is passed through two (2) layers of cheesecloth and the filtrate centrifuged at 1000×g for 10 minutes. The clear supernatant is removed and recentrifuged at 165,000×g for 30 minutes. The resulting pellet containing the oxytocin receptors is resuspended in 50.0 mM Tris.HCl containing 5.0 mM MgCl2 at pH 7.4, to give a protein concentration of 2.5 mg/ml of tissue suspension. This preparation is used in subsequent binding assays with [^3 H]oxytocin.
Binding of 3,5-[^3 H]Oxytocin ([^3 H]OT) to its receptors is done in microtiter plates using [^3 H]OT, at various concentrations, in an assay buffer of 50.0 mM Tris.HCI, pH 7.4 and containing 5.0 mM MgCl2, and a mixture of protease inhibitors: BSA, 0.1 mg; aprotinin, 1.0 mg; 1,10-phenanthroline, 2.0 mg; […], 10.0 mg; and PMSF, 0.3 mg per 100 ml of buffer solution. Non-specific binding is determined in the presence of 1.0 uM unlabeled OT. The binding reaction is terminated after 60 minutes, at 22° C., by rapid filtration through glass fiber filters using a Brandel® cell harvester (Biomedical Research and Development Laboratories, Inc., Gaithersburg, Md.). Competition experiments are conducted at equilibrium using 1.0 nM [^3 H]OT and varying the concentration of the displacing agents. The concentrations of agent displacing 50% of [^3 H]OT at its sites (IC50) are calculated by a computer assisted LUNDON-2 program (LUNDON SOFTWARE INC., Ohio, USA).

T1 sequence (Q00788 whole entry): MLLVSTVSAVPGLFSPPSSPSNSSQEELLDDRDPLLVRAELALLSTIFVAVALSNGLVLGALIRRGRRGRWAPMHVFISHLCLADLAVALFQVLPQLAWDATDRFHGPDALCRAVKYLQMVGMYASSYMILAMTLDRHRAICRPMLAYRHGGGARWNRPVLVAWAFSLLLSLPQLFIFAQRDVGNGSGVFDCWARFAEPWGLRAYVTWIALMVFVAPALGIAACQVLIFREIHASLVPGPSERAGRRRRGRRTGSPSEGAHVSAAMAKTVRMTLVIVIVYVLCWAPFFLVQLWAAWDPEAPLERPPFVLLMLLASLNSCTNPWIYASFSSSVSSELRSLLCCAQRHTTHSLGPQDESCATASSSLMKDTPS

IC50 ([1]; rat kidney medullary V2 receptors) [nM]	IC50 ([2]; rat hepatic V1 receptors) [nM]	inhibition at 1 µM [3] [%]	V2 % ([1]; rat kidney V2, "at μM" (concentration not given)) [%]	inhibition at 1 µM ([2]; 2 h, rat hepatic V1) [%]	IC50 [3] [nM]	inhibition at 10 µM [3] [%]	inhibition at 1 µM ([1]; rat kidney V2, at 1 μM) [%]	inhibition at 10 µM ([1]; rat kidney V2, at 10 μM) [%]	inhibition at 10 µM ([2]; 2 h, rat hepatic V1, at 10 μM) [%]	SMILES
54	240	12	–	–	–	–	–	–	–	Cc1ccc(F)cc1C(=O)Nc1ccc(C(=O)N2Cc3ccccc3Oc3ccccc32)cn1 [Example 1, N-[5-(Dibenz[b,f][1,4]oxazepin-10(11H)-ylcarbonyl)-2-pyridinyl]-5-fluoro-2-methylbenzamide]
–	–	–	90	100	610	76	–	–	–	O=C(Nc1ccc(C(=O)N2Cc3ccccc3Cc3ccccc32)cn1)c1ccccc1-c1ccccc1 [Example 12, N-[5-[(6,11-Dihydro-5H-dibenz[b,e]azepin-5-yl)carbonyl]-2-pyridinyl][1,1'-biphenyl]-2-carboxamide]
–	–	–	–	100	113	94	39	–	–	O=C(c1ccc(-c2ccccc2)cc1)N1Cc2ccccc2Nc2ccccc21 [Example 25]
–	–	37	–	–	–	–	–	16	10	O=C(c1ccccc1)c1ccc(C(=O)N2Cc3ccccc3CCc3ccccc32)cc1 [Example 33, 5-(4-Benzoylbenzoyl)5,6,11,12-tetrahydrodibenz[b,f]azocine]
